In publication PMC9644404, “Mechanistic Insights into the Activation of Lecithin–Cholesterol Acyltransferase in Therapeutic Nanodiscs Composed of Apolipoprotein A-I Mimetic Peptides and Phospholipids” (Molecular Pharmaceutics, 2022):

Tests used:
LCAT [1] = conditions: cited from earlier work
Description: The ... || The formation of acyl intermediate of LCAT requiring the entry of PCs into the active site is another important factor in LCAT activity. […] We have also ...

LCAT [2] = conditions: cited from earlier work; remark: listed apart in the source
Description: Therefore, this has long been a sought-after property of synthetic HDL-mimetic nanodiscs and apoA-I mimetic peptides. The nativelike maturation of the nanodiscs by lecithin–cholesterol acyltransferase (LCAT) has been regarded as a desired feature as it would lead to the esterification of free CHOL and the formation of hydrophobic cholesteryl ester (CE)-rich core. […] The ... || To investigate the location, conformation, and dynamics of apoA-Imimetic peptides in nanodiscs in silico, we complexed coarse-grained models of DMPC lipids with models of apoA-Imimetic peptides 22A and 22A-K and simulated the systems up to 80 μs, measured in the effective Martini force field time. To prepare the systems, 200 lipids and 28 peptides were placed randomly into the simulation box, and after a short vacuum simulation to compress them, the systems were solvated. Equilibrated nanodiscs formed rapidly after starting the production runs. The proteolytic removal of C-terminal lysine of 2 ... || (+ 2 further places)

[3] = QCM: adsorption of nanodiscs on silica sensor; assay type: physicochemical; conditions: nanodiscs 0.15 mg/mL in PBS, 150 μL/min, 5 min, 20 °C, versus 22A
Description: Impedance-based QCM instrument QCM-Z500 (KSV Instruments Ltd., Helsinki, Finland) was used for the measurements. The temperature was kept constant at 20 °C. Before measurements, silica-coated sensors (Q-Sense Inc./Biolin Scientific, Västra Frölunda, Sweden) were flushed with 70% (v/v) ethanol and ultrapure water, dried under nitrogen flow, and oxygen-plasma-treated (PDC-002; Harrick Plasma, Ithaca, NY) for 5 min at 29.6 W and 133–173 Pa. Samples were injected into the flow channel using a peristaltic pump system. After the baseline of the signal at different frequency overtones (3, 5, and 7) was stabilized in PBS, a nanodisc surface was formed by flowing nanodisc solution (0.15 mg/mL in PBS, 150 μL/min) on the sensor for 5 min, until the signal was again stabilized. Flow speed was then decreased to 75 μL/min for 5 min of flow with PBS to ensure a solid, uniform nanodisc surface. Next, 10 nM (0.47 μg/mL) LCAT was then injected through the flow channel at 75 μL/min for 17 min. Then, the running solution was again changed to PBS to see the frequency signal stabilize. All measurements were performed three times; between measurements, the sensor and the flow channel were cleaned in situ by 3 min sequential injections of 20 mM CHAPS, 2% (v/v) Hellmanex, 70% (v/v) ethanol, and ultrapure water at 150 μL/min. […]

LCAT [4] = test: QCM: LCAT binding to peptide-lipid nanodiscs on sensor; set-up: species or system human; conditions: for adsorption of LCAT on the discs (in words): 10 nM LCAT in PBS, 20 °C, versus 22A; for estimated number of LCAT enzymes bound per disc: calculated from adsorbed mass after LCAT injection (10 nM LCAT in PBS, 75 μL/min, 17 min, 20 °C), DMPC nanodiscs, three measurements
Description: (§1) ApoA-I mimetic peptides 22A ([…]), 22A-K22Q ([…]), and 22A-R7Q ([…]) were obtained from Peptide Protein Research Ltd. (Fareham, UK). 1,2-Dimyristoyl-sn-glycerol-3-phosphocholine (DMPC), 1,2-dipalmitoyl-sn-glycerol-3-phosphocholine (DPPC), and ergosta-5,7,9,(11),22-tetra-3beta-ol (dehydroergosterol, DHE) were purchased from Avanti Polar Lipids Inc. (Alabaster, AL). Recombinant human lecithin cholesterol acyltransferase (LCAT) was synthesized by ProSpec-Tany TechnoGene Ltd. (East Brunswick, NJ). Cholesterol oxidase (COx) was obtained from Sigma-Aldrich (St. Louis, MO).
Before QCM measurements, the LCAT stock solution was prepared by dissolving 10 μg of LCAT in 500 μL of PBS. The solution was centrifuged (14 000g) twice through Amicon Ultra-0.5, 10 kDa cutoff filter (Sigma-Aldrich) for buffer exchange and purification. The retentate was diluted to a total volume of 500 μL (PBS) after each step. Prepared 20 μg/mL (∼430 nM) LCAT solution was stored in −20 °C before further use.
Impedance-based QCM instrument QCM-Z500 (KSV Instruments Ltd., Helsinki, Finland) was used for the measurements. The temperature was kept constant at 20 °C. Before measurements, silica-coated sensors (Q-Sense Inc./Biolin Scientific, Västra Frölunda, Sweden) were flushed with 70% (v/v) ethanol and ultrapure water, dried under nitrogen flow, and oxygen-plasma-treated (PDC-002; Harrick Plasma, Ithaca, NY) for 5 min at 29.6 W and 133–173 Pa. Samples were injected into the flow channel using a peristaltic pump system. After the baseline of the signal at different frequency overtones (3, 5, and 7) was stabilized in PBS, a nanodisc surface was formed by flowing nanodisc solution (0.15 mg/mL in PBS, 150 μL/min) on the sensor for 5 min, until the signal was again stabilized. Flow speed was then decreased to 75 μL/min for 5 min of flow with PBS to ensure a solid, uniform nanodisc surface. Next, 10 nM (0.47 μg/mL) LCAT was then injected through the flow channel at 75 μL/min for 17 min. Then, the running solution was again changed to PBS to see the frequency signal stabilize. All measurements were performed three times; between measurements, the sensor and the flow channel were cleaned in situ by 3 min sequential injections of 20 mM CHAPS, 2% (v/v) Hellmanex, 70% (v/v) ethanol, and ultrapure water at 150 μL/min. Frequency overtone signals were normalized, baseline corrected, and averaged for each measurement.

[5] = test system: recombinant human lecithin cholesterol acyltransferase (LCAT); test: LCAT activity assay (DHE esterification in DMPC/DHE/peptide nanodiscs); assay type: biochemical; conditions: relative to 22A, 30 min; for LCAT activity (in words): pH 7.4, 37 °C, fluorescence
Description: as §1
The LCAT activity assay relies on the integration of DHE in the nanodisc structure as a substrate for LCAT. DHE is a naturally occurring fluorescent sterol analog; the presence of three conjugated double bonds in the steroid ring system gives this probe a slight fluorescence in the near-UV region of the spectrum.[42] As a consequence of the acyltransferase activity of LCAT, DHE in the PL bilayer is stored in the inner core of sHDL as DHE-ester. The esterification of DHE causes a shift in the sterol analog emission wavelength from 372 to 425 nm; this shift, together with the use of COx, which selectively renders the unesterified DHE nonfluorescent, allows the exclusive detection and quantification of the DHE-ester. This provides information about the LCAT–sHDL interaction and activity.[43],[44] sHDL containing the fluorescent sterol DHE for LCAT activity assay was prepared via thermal cycling method. In a glass vial, DMPC and DHE in chloroform were combined at a 9:1 molar ratio and were first dried with Rotavapor R-200 at room temperature for 1–2 h and then an additional 1 h under nitrogen flow at room temperature. […] After this, the plates went through a second round of incubation at 37 °C with gentle shaking (250 rpm/h) for 1 h to extinguish the fluorescence of unesterified DHE. After re-equilibrating the plate at room temperature, DHE fluorescence was detected at an excitation wavelength of 325 nm and an emission wavelength of 425 nm using Varioskan LUX (Thermo Scientific, Waltham, MA). […]

Sequence: PVLDLFRELLNELLEALKQKL [22A-K, 22A without C-terminal lysine K22]
- effect on phospholipolytic action of LCAT on removal of K22 (in words) (LCAT [1]): no effect on phospholipolytic action mediated by LCAT
- decrease of CHOL esterification on removal of K22 (LCAT [2]; 22A without C-terminal K22 versus 22A): ~60%
- LCAT activation on removal of C-terminal lysine (in words) (LCAT [2]; proteolytic removal in serum): significantly reduces LCAT activation

Sequence: PVLDLFRELLNELLEALKQKLQ [22A-K22Q, 22A variant with charge neutralization of residue K22]
- adsorption of nanodiscs on the sensor (in words) [3]: decreased adsorption of nanodiscs on the sensor
- adsorption of LCAT on the discs (in words) (LCAT [4]): reduced the adsorption of LCAT on the discs
- estimated number of LCAT enzymes bound per disc (LCAT [4]): one LCAT was attached to every five nanodiscs
- decrease of LCAT activity ([5]; lipid:peptide 2:1 w/w, DHE 0-35 μM, LCAT 7 μg/mL, PBS + 1 mM EDTA + 60 μM albumin pH 7.4, 37 °C, fluorescence 325/425 nm, triplicate, two independent experiments): 50%
- LCAT activity (in words) [5]: decreased the LCAT activation potency

Sequence: PVLDLFRELLNELLEALKQKLK [22A, apoA-I mimetic peptide 22A (Esperion Therapeutics, ESP24218)]
- estimated number of LCAT enzymes bound per disc (LCAT [4]): approximately one LCAT was bound to every two nanodiscs
- LCAT activation (in words) (LCAT [2]; versus native apoA-I): activate LCAT nearly as well as native apoA-I

Sequence: PVLDLFQELLNELLEALKQKLK [22A-R7Q, 22A variant with charge neutralization of residue R7]
- adsorption of nanodiscs on the sensor (in words) [3]: decreased adsorption of nanodiscs on the sensor
- adsorption of LCAT on the discs (in words) (LCAT [4]): reduced the adsorption of LCAT on the discs
- estimated number of LCAT enzymes bound per disc (LCAT [4]): one LCAT was attached to every five nanodiscs
- LCAT activity (in words) [5]: nearly identical activity with 22A
